Laboratory results from patent publication US20210188839A1, “COMPOUNDS AND THEIR METHODS OF USE” (Praxis Precision Medicines, Inc., priority 2016, published 2021).

These molecules were tested against T1, human Nav1.6 (hNav1.6) (Homo sapiens, UniProt Q9UQD0) (assay: Modulation of late sodium current (INaL), PatchXpress high throughput electrophysiology). Settings: HEK293; 1 μM compound; HEK-293 cells expressing recombinant hNav1.6; late current evoked by 300 nM ATX-II.
T1 construct: expressed in transfected cells; host or cells: HEK-293
T1 sequence (Q9UQD0 whole entry): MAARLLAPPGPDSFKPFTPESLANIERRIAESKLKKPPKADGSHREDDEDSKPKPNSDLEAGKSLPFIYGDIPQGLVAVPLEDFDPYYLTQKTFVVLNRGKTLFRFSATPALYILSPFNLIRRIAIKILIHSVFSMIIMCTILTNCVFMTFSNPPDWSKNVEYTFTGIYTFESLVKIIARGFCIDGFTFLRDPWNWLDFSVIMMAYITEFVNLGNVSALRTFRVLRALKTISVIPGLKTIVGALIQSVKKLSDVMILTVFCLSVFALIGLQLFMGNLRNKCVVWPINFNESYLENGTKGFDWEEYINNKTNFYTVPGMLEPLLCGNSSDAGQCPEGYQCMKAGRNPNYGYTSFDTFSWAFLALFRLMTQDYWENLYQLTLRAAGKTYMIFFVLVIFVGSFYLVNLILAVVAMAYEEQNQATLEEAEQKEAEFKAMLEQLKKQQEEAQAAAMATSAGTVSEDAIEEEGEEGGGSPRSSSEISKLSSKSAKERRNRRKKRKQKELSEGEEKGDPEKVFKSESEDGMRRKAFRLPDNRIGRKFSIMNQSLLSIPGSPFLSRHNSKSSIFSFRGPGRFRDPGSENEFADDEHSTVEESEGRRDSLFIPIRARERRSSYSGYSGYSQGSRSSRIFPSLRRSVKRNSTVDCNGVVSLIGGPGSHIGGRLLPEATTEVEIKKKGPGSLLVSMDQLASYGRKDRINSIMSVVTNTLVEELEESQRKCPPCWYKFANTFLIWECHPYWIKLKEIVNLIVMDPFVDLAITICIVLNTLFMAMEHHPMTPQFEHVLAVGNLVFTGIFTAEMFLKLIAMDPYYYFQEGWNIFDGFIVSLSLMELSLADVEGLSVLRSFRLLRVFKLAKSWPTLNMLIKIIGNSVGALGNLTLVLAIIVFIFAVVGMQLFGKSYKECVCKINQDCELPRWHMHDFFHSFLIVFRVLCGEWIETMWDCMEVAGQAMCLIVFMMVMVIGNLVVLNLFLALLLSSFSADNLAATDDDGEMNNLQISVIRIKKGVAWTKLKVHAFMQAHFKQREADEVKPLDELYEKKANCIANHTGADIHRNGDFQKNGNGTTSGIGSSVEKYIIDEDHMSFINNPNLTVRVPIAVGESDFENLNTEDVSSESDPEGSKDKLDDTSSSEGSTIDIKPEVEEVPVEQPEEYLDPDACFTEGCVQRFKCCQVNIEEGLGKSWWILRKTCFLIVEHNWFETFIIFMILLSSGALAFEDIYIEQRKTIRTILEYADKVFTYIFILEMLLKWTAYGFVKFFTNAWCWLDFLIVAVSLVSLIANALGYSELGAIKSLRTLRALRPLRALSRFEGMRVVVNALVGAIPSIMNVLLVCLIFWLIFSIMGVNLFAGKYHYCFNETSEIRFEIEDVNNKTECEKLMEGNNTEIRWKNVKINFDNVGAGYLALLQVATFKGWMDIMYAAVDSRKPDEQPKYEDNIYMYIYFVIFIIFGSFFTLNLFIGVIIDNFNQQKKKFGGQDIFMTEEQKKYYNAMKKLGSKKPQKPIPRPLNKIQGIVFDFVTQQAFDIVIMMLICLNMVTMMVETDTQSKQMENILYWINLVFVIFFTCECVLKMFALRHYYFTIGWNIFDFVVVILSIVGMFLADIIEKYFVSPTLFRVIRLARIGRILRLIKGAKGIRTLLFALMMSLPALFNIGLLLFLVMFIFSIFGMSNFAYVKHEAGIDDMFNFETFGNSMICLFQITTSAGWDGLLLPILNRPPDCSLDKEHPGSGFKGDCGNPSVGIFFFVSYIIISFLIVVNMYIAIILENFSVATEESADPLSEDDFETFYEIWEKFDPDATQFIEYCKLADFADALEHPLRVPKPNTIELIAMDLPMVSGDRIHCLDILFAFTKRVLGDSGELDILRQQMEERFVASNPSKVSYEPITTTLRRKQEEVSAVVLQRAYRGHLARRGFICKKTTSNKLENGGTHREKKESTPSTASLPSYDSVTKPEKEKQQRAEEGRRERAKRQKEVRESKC
Assay type: cell-based
Procedure: Functional characterization of exemplary compounds to modulate INaL expressed by the Nav1.6 voltage-gated sodium channel was accomplished using the PatchXpress' high throughput electrophysiology platform (Molecular Devices, Sunnyvale, Calif.). HEK-293 cells expressing recombinant, human Nav1.6 (hNav1.6) were grown in DMEM/high-glucose Dulbecco's modified, 10% FBS, 2 mM sodium pyruvate, 10 mM HEPES and 400 μg/mL G418. Cells were grown to 50%-80% confluency prior to harvesting. […] The onboard liquid handling facility of the PatchXpress was used for dispensing cells and applying test compounds. Nav late currents were evoked by the application of 300 nM ATX-II. […] INaL amplitude and stability were determined by analyzing the mean current amplitude over the final 20 ms of thetest pulse. […] Percent steady-state inhibition of INaL was calculated as: [(INaL_compound)/(INaL_control)]*100, where INaL_compound and INaL_control represent INaL recorded in the presence or absence of compound, respectively.

| SMILES | inhibition at 1 µM [%] |
| --- | --- |
| N#CC1(c2ccc(-c3ccc4ncc(C(F)(F)F)n4c3)cc2)CC1 [Compound 5] | < 50 |
| Cc1cc(OC(F)(F)F)ccc1-c1cc2c(C(F)(F)F)cnn2cn1 [Compound 23, 5-[2-methyl-4-(trifluoromethoxy)phenyl]-3-(trifluoromethyl)pyrazolo[1,5-c]pyrimidine] | < 50 |
| COc1cc(OC(F)(F)F)ccc1-c1ccn2ncc(C(F)(F)F)c2c1 [Compound 42, 5-[2-methoxy-4-(trifluoromethoxy)phenyl]-3-(trifluoromethyl)pyrazolo[1,5-a]pyridine] | > 50 |
| FC(F)(F)c1ccc(-c2cn3c(C(F)(F)F)cnc3cn2)cc1 [Compound 34, 3-(trifluoromethyl)-6-[4-(trifluoromethyl)phenyl]imidazo[1,2-a]pyrazine] | > 50 |
| Cc1cc(OC(F)(F)F)ccc1-c1cnn2ncc(C(=O)N(C)C)c2c1 [Compound 50, N,N-dimethyl-5-[2-methyl-4-(trifluoromethoxy)phenyl]pyrazolo [1,5-b]pyridazine-3-carboxamide] | < 50 |
| FC(F)(F)Oc1ccc(-c2ccc3ncc(C(F)(F)F)n3n2)cc1 [Compound 19] | < 50 |
| Cc1cn2cc(-c3ccc(OC(F)(F)F)cc3)cnc2n1 [Compound 32, 2-methyl-6-[4-(trifluoromethoxy)phenyl]imidazo[1,2-a]pyrimidine] | < 50 |
| Cc1cc(OC(F)(F)F)ccc1-c1cnn2nccc2c1 [Compound 26, 5-[2-methyl-4-(trifluoromethoxy)phenyl]pyrazolo[1,5-b]pyridazine] | < 50 |
| FC(F)(F)Oc1ccc(-c2cnn3ncc(C(F)(F)F)c3c2)cc1 [Compound 29, 5-[4-(trifluoromethoxy)phenyl]-3-(trifluoromethyl)pyrazolo[1,5-b]pyridazine] | > 50 |
| COC(C)(C)c1ccc(-c2ccc3ncc(C(F)(F)F)n3c2)cc1 [Compound 4] | > 50 |
| Cc1cc(OC(F)(F)F)ccc1-c1cnn2ncc(C(F)(F)F)c2c1 [Compound 27, 5-[2-methyl-4-(trifluoromethoxy)phenyl]-3-(trifluoromethyl)pyrazolo[1,5-b]pyridazine] | < 50 |
| Fc1cc(-c2cn3c(C(F)(F)F)cnc3cn2)cnc1OCC(F)(F)F [Compound 36, 6-[5-fluoro-6-(2,2,2-trifluoroethoxy)-3-pyridyl]-3-(trifluoromethyl)imidazo[1,2-a]pyrazine] | > 50 |
| FC(F)(F)Oc1ccc(-c2cnc3nccn3c2)cc1 [Compound 16] | < 50 |
| FC(F)(F)COc1ccc(-c2ccn3nccc3c2)cn1 [Compound 15, 5-[6-(2,2,2-trifluoroethoxy)-3-pyridyl]pyrazolo[1,5-a]pyridine] | > 50 |
| FC(F)(F)Oc1ccc(-c2ccc3nccn3c2)cc1 [Compound 6] | < 50 |
| COc1cc(OC(F)(F)F)ccc1-c1ccc2ncc(C(F)(F)F)n2c1 [Compound 2] | > 50 |
| FC(F)(F)Oc1ccc(-c2cc3c(C(F)(F)F)cnn3cn2)cc1 [Compound 25a, 5-[4-(trifluoromethoxy)phenyl]-3-(trifluoromethyl)pyrazolo[1,5-c]pyrimidine] | > 50 |
| FC(F)(F)Oc1ccc(-c2ccc3nccn3n2)cc1 [Compound 18] | < 50 |

| SMILES | inhibition at 1 µM [%] |
| --- | --- |
| COCc1cc(OC(F)(F)F)ccc1-c1cnc2ncc(C(F)(F)F)n2c1 [Compound 30, 6-[2-(methoxymethyl)-4-(trifluoromethoxy)phenyl]-3-(trifluoromethyl)imidazo[1,2-a]pyrimidine] | < 50 |
| FC(F)(F)Oc1ccc(-c2cc3c(C(F)(F)C(F)(F)F)cnn3cn2)cc1 [Compound 25b, 3-(1,1,2,2,2-pentafluoroethyl)-5-[4-(trifluoromethoxy)phenyl]pyrazolo[1,5-c]pyrimidine] | > 50 |
| N#CC1(c2ccc(-c3ccn4ncc(C(F)(F)F)c4c3)cc2)CC1 [Compound 43, 1-[4-[3-(trifluoromethyl)pyrazolo[1,5-a]pyridin-5-yl]phenyl]cyclopropanecarbonitrile] | < 50 |
| FC(F)(F)Oc1ccc(-c2cnn3nccc3c2)cc1 [Compound 28, 5-[4-(trifluoromethoxy)phenyl]pyrazolo[1,5-b]pyridazine] | < 50 |
| Cc1nc2ncc(-c3ccc(OC(F)(F)F)cc3)cn2c1C(F)(F)F [Compound 33, 2-methyl-6-[4-(trifluoromethoxy)phenyl]-3-(trifluoromethyl)imidazo[1,2-a]pyrimidine] | < 50 |
| Cc1cc(OC(F)(F)F)ccc1-c1cnc2ncc(C(F)(F)F)n2c1 [Compound 31, 6-[2-methyl-4-(trifluoromethoxy)phenyl]-3-(trifluoromethyl)imidazo[1,2-a]pyrimidine] | < 50 |
| FC(F)(F)Oc1ccc(-c2cnc3ncc(C(F)(F)F)n3c2)cc1 [Compound 17] | < 50 |
| COCc1cc(OC(F)(F)F)ccc1-c1cn2c(C(F)(F)F)cnc2cn1 [Compound 41, 6-[2-(methoxymethyl)-4-(trifluoromethoxy)phenyl]-3-(trifluoromethyl)imidazo[1,2-a]pyrazine] | > 50 |
| COC(C)(C)c1ccc(-c2ccn3ncc(C(F)(F)F)c3c2)cc1 [Compound 44, 5-[4-(1-methoxy-1-methyl-ethyl)phenyl]-3-(trifluoromethyl)pyrazolo[1,5-a]pyridine] | < 50 |
| FC(F)(F)Oc1ccc(-c2cc3ccnn3cn2)cc1 [Compound 24, 5-[4-(trifluoromethoxy)phenyl]pyrazolo[1,5-c]pyrimidine] | < 50 |
| FC(F)(F)COc1ccc(-c2ccn3ncc(C(F)(F)F)c3c2)cn1 [Compound 45, 5-[6-(2,2,2-trifluoroethoxy)-3-pyridyl]-3-(trifluoromethyl)pyrazolo[1,5-a]pyridine] | > 50 |
| COc1cc(OC(F)(F)F)ccc1-c1ccn2nccc2c1 [Compound 14, 5-[2-methoxy-4-(trifluoromethoxy)phenyl]pyrazolo[1,5-a]pyridine] | > 50 |
| FC(F)(F)Oc1ccc(-c2cn3c(C(F)(F)F)cnc3cn2)cc1 [Compound 21] | > 50 |
| FC(F)(F)Oc1ccc(-c2cn3ccnc3cn2)cc1 [Compound 20] | < 50 |
| Cc1cc(OC(F)(F)F)ccc1-c1cc2ccnn2cn1 [Compound 22, 5-[2-methyl-4-(trifluoromethoxy)phenyl]pyrazolo[1,5-c]pyrimidine] | < 50 |
| FC(F)(F)COc1ccc(-c2ccc3ncc(C(F)(F)F)n3c2)cn1 [Compound 3] | > 50 |
| N#CC1(c2ccc(-c3cn4c(C(F)(F)F)cnc4cn3)cc2)CC1 [Compound 35, 1-[4-[3-(trifluoromethyl)imidazo[1,2-a]pyrazin-6-yl]phenyl]cyclopropanecarbonitrile] | < 50 |
